The results in this text go back to patent publication US11076595B2, “1-(n,n-disubstituted carbamoyl) 4-(substituted sulfonyl)triazolin-5-one derivative, 4-(n,n-disubstituted carbamoyl) 1-(substituted sulfonyl)triazolin-5-one derivative, and herbicide containing said derivative as active ingredient” (HOKKO CHEMICAL INDUSTRY CO., LTD., priority 2017, dated 2021).

Common to all, as to format: in vivo
In test [1] the test system is Echinochloa crus-galli. Kind of test: Test Example 11: herbicidal effect test by soil treatment in paddy field. As to conditions: 120 g/10a active ingredient, 14 days after treatment. In a few lines: (§1)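 Puddled paddy soil with N:P:K 17:17:17 fertilizer in Wagner pots; 30 seeds per species sown at 0–1 cm, flooded to about 3 cm, kept in a glass greenhouse. Water-diluted emulsifiable concentrate dripped in immediately after sowing at 120 g a.i. per 10 are. Suppression from dry weight versus untreated at 14 days.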

In test [2] the test system is Lindernia pyxidaria. The description is as above. Conditions: 120 g/10a active ingredient, 14 days after treatment. In a few lines: as §1
Test [3] concerns Monochoria vaginalis. Described as above. As to conditions: 120 g/10a active ingredient, 14 days after treatment. A digest of the protocol: as §1
Test [4] has as its system Scirpus juncoides. Described as above. Conditions: 120 g/10a active ingredient, 14 days after treatment. A digest of the protocol: as §1
Test [5] has as its system Echinochloa crus-galli. Kind of test: Test Example 12: herbicidal effect test by treatment during growing period in paddy field. Conditions: 120 g/10a; treatment seven days after sowing in flooded paddy pot; assessed 14 days after treatment. In a few lines:
(§2)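 Growing-period treatment in flooded paddy pots: the diluted emulsifiable concentrate was dripped in at 120 g a.i. per 10 are seven days after seeding. Inhibition is expressed as percent reduction in dry weight versus untreated pots, measured 14 days later in duplicate.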

For test [6], the system named is Lindernia pyxidaria. The test is described as above. Conditions: 120 g/10a; treatment seven days after sowing in flooded paddy pot; assessed 14 days after treatment. In a few lines:
as §2

In test [7] the test system is Monochoria vaginalis. The description is as above. Conditions: 120 g/10a; treatment seven days after sowing in flooded paddy pot; assessed 14 days after treatment. In a few lines:
as §2

Test [8] deals with Scirpus juncoides. Described as above. As to conditions: 120 g/10a; treatment seven days after sowing in flooded paddy pot; assessed 14 days after treatment. A digest of the protocol: as §2
The subject of test [9] is Amaranthus viridis. Kind of test: Test Example 13: herbicidal effect test by soil treatment in upland field. As to conditions: 120 g/10a, 14 days after treatment. A digest of the protocol: (§3)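 Field alluvial soil in 36 cm^2 pots had 20 seeds of each weed mixed into its top 1 cm. One day after sowing, a water-diluted emulsifiable concentrate was sprayed onto the soil at 100 liter per 10 are (120 g active ingredient per 10 are), with two replicates. Weed suppression (%) was assessed after 14 days.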

Test [10] deals with Chenopodium album. The description is as above. Conditions: 120 g/10a, 14 days after treatment. A digest of the protocol: as §3
In test [11] the test system is Echinochloa crus-galli. The test is described as above. As to conditions: 120 g/10a, 14 days after treatment. A digest of the protocol:
as §3

The test system of test [12] is crabgrass. The description is as above. As to conditions: 120 g/10a, 14 days after treatment. A digest of the protocol:
as §3

Test [13] concerns Chenopodium album. Kind of test: Test Example 14: herbicidal effect test by foliage treatment in upland field. As to conditions: 7 days after sowing, 120 g/10a, 14 days after treatment. In a few lines: (§4)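 Weeds sown 20 seeds each in alluvial field soil; 7 days after sowing, water-diluted emulsifiable concentrate sprayed at 100 L per 10 are, 120 g active ingredient per 10 are. Suppression rate (%) from dry weight versus untreated plots at 14 days, two replicates.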

The subject of test [14] is crabgrass. The test is described as above. Conditions: 7 days after sowing, 120 g/10a, 14 days after treatment. In a few lines: as §4
Test [15] relates to Amaranthus viridis. The description is as above. Conditions: 7 days after sowing, 120 g/10a, 14 days after treatment. In a few lines: as §4
For test [16], the system named is Echinochloa crus-galli. The description is as above. As to conditions: 7 days after sowing, 120 g/10a, 14 days after treatment. In a few lines: as §4

For `CC(C)N(C(=O)n1cnn(S(=O)(=O)c2ccccc2Cl)c1=O)c1ccccc1` [Compound 11-501], the “Weed suppression rate (%) Echinochloa crus-galli” value in the test with Echinochloa crus-galli [1] and in the test with Echinochloa crus-galli [5] was 100% each time. Also, the “Weed suppression rate (%) Lindemia pyxidaria” value with Lindernia pyxidaria [2] was determined as 90%; in the test on Lindernia pyxidaria [6], 80%. Further, the “Weed suppression rate (%) Monochoria vaginalis” value came out at 80% in the test on Monochoria vaginalis [3] and 90% with Monochoria vaginalis [7]. Also, the “Weed suppression rate (%) Scirpus juncoides” value with Scirpus juncoides [4] and with Scirpus juncoides [8] was 90% in each case. Further, the “herbicidal effect, Amaranthus viridis” value in the test on Amaranthus viridis [9] and in the test with Amaranthus viridis [15] was 0% each time. Also, the “herbicidal effect, Chenopodium album” value in the test on Chenopodium album [10] and in the test with Chenopodium album [13] was 0% each time. In addition, the “herbicidal effect, Echinochloa crus-galli” value is on record as 40% in the test on Echinochloa crus-galli [11] and 70% in the test with Echinochloa crus-galli [16]. Also, the “herbicidal effect, Crabgrass” value in the test on crabgrass [12] and in the test with crabgrass [14] was 90% each time.
`CC(C)N(C(=O)n1cnn(S(=O)(=O)c2ccccc2Cl)c1=O)c1ccc(F)cc1F` [Compound 11-512]: the “Weed suppression rate (%) Echinochloa crus-galli” value in the test with Echinochloa crus-galli [1] and in the test on Echinochloa crus-galli [5] was 100% each time. Moreover, the “Weed suppression rate (%) Lindemia pyxidaria” value with Lindernia pyxidaria [2] and in the test on Lindernia pyxidaria [6] was 100% in each case. In addition, the “Weed suppression rate (%) Monochoria vaginalis” value in the test on Monochoria vaginalis [3] and in the test with Monochoria vaginalis [7] was 100% throughout. In addition, the “Weed suppression rate (%) Scirpus juncoides” value is recorded as 100% in the test on Scirpus juncoides [4] and 90% in the test on Scirpus juncoides [8]. Moreover, the entries for the “herbicidal effect, Amaranthus viridis” value in the test on Amaranthus viridis [9] and in the test on Amaranthus viridis [15] were 70% and 40%, respectively. The “herbicidal effect, Chenopodium album” value in the test with Chenopodium album [10] and with Chenopodium album [13] was 50% each time. The “herbicidal effect, Echinochloa crus-galli” value in the test with Echinochloa crus-galli [11] is 100%; with Echinochloa crus-galli [16], 80%. The “herbicidal effect, Crabgrass” value in the test with crabgrass [12] is reported as 100%; in the test with crabgrass [14], 90%.
As for `Cc1ccccc1S(=O)(=O)n1ncn(C(=O)N(c2ccc(F)cc2F)C(C)C)c1=O` [Compound 11-623], the “Weed suppression rate (%) Echinochloa crus-galli” value in the test with Echinochloa crus-galli [1] and in the test with Echinochloa crus-galli [5] was 100% throughout. The “Weed suppression rate (%) Lindemia pyxidaria” value with Lindernia pyxidaria [2] and in the test with Lindernia pyxidaria [6] was 100% throughout. Also, the results for the “Weed suppression rate (%) Monochoria vaginalis” value in the test with Monochoria vaginalis [3] and in the test with Monochoria vaginalis [7] were 90% and 100%, respectively. Further, the “Weed suppression rate (%) Scirpus juncoides” value in the test on Scirpus juncoides [4] and in the test with Scirpus juncoides [8] was 90% throughout. Further, the “herbicidal effect, Amaranthus viridis” value with Amaranthus viridis [9] is 0%; with Amaranthus viridis [15], 40%. Besides, the “herbicidal effect, Chenopodium album” value amounted to 0% with Chenopodium album [10] and 40% in the test with Chenopodium album [13]. In addition, the “herbicidal effect, Echinochloa crus-galli” value in the test with Echinochloa crus-galli [11] is listed as 100%; with Echinochloa crus-galli [16] it was 80%. Also, the “herbicidal effect, Crabgrass” value in the test on crabgrass [12] is 90%; with crabgrass [14], 60%.
For the molecule `Cc1ccc(S(=O)(=O)n2ncn(C(=O)N(c3ccccc3)C(C)C)c2=O)cc1` [Compound 11-626], the entries for the “Weed suppression rate (%) Echinochloa crus-galli” value with Echinochloa crus-galli [1] and in the test with Echinochloa crus-galli [5] were 100% and 90%, respectively. Moreover, the “Weed suppression rate (%) Lindemia pyxidaria” value worked out at 90% in the test on Lindernia pyxidaria [2] and 80% in the test on Lindernia pyxidaria [6]. Besides, the figures for the “Weed suppression rate (%) Monochoria vaginalis” value in the test with Monochoria vaginalis [3] and with Monochoria vaginalis [7] were 70% and 80%, respectively. Besides, the “Weed suppression rate (%) Scirpus juncoides” value in the test with Scirpus juncoides [4] and with Scirpus juncoides [8] was 90% in each case. Besides, the “herbicidal effect, Amaranthus viridis” value in the test with Amaranthus viridis [9] stood at 50%; in the test with Amaranthus viridis [15], 60%. The “herbicidal effect, Chenopodium album” value with Chenopodium album [10] was determined as 70%; in the test on Chenopodium album [13] it was 90%. The “herbicidal effect, Echinochloa crus-galli” value in the test with Echinochloa crus-galli [11] worked out at 90%; in the test on Echinochloa crus-galli [16], 40%. In addition, the “herbicidal effect, Crabgrass” value in the test on crabgrass [12] and in the test with crabgrass [14] was 90% in each case.
Consider `Cc1ccc(S(=O)(=O)n2ncn(C(=O)N(c3ccc(F)cc3F)C(C)C)c2=O)cc1` [Compound 11-637], for which the “Weed suppression rate (%) Echinochloa crus-galli” value in the test with Echinochloa crus-galli [1] and in the test on Echinochloa crus-galli [5] was 100% in each case. The “Weed suppression rate (%) Lindemia pyxidaria” value was 100% in the test on Lindernia pyxidaria [2] and 90% in the test on Lindernia pyxidaria [6]. Moreover, the “Weed suppression rate (%) Monochoria vaginalis” value with Monochoria vaginalis [3] is on record as 100%; in the test with Monochoria vaginalis [7] it was 90%. Besides, the “Weed suppression rate (%) Scirpus juncoides” value in the test on Scirpus juncoides [4] and with Scirpus juncoides [8] was 90% each time. The “herbicidal effect, Amaranthus viridis” value with Amaranthus viridis [9] is listed as 40%; in the test on Amaranthus viridis [15] it was 0%. In addition, the “herbicidal effect, Chenopodium album” value in the test with Chenopodium album [10] was 40%; with Chenopodium album [13], 0%. Besides, the “herbicidal effect, Echinochloa crus-galli” value with Echinochloa crus-galli [11] was found to be 100%; in the test on Echinochloa crus-galli [16] it was 80%. Also, the entries for the “herbicidal effect, Crabgrass” value with crabgrass [12] and in the test on crabgrass [14] were 90% and 80%, respectively.
`Cc1ccc(S(=O)(=O)n2ncn(C(=O)N(c3ccc(F)cc3Cl)C(C)C)c2=O)cc1` [Compound 11-644]: the “Weed suppression rate (%) Echinochloa crus-galli” value with Echinochloa crus-galli [1] and with Echinochloa crus-galli [5] was 90% each time. For the same molecule, the “Weed suppression rate (%) Lindemia pyxidaria” value in the test with Lindernia pyxidaria [2] and with Lindernia pyxidaria [6] was 80% each time. Moreover, the “Weed suppression rate (%) Monochoria vaginalis” value with Monochoria vaginalis [3] and in the test on Monochoria vaginalis [7] was 80% in each case. In addition, the “Weed suppression rate (%) Scirpus juncoides” value in the test with Scirpus juncoides [4] and in the test with Scirpus juncoides [8] was 90% in each case. In addition, the “herbicidal effect, Amaranthus viridis” value in the test with Amaranthus viridis [9] and in the test on Amaranthus viridis [15] was 90% in each case. The “herbicidal effect, Chenopodium album” value in the test with Chenopodium album [10] and in the test with Chenopodium album [13] was 80% in each case. In addition, the “herbicidal effect, Echinochloa crus-galli” value in the test with Echinochloa crus-galli [11] and in the test with Echinochloa crus-galli [16] was 80% each time. The “herbicidal effect, Crabgrass” value in the test with crabgrass [12] and in the test with crabgrass [14] was 90% in each case.
Turning to `CCc1ccc(S(=O)(=O)n2ncn(C(=O)N(c3ccc(F)cc3F)C(C)C)c2=O)cc1` [Compound 11-666], the “Weed suppression rate (%) Echinochloa crus-galli” value in the test on Echinochloa crus-galli [1] and in the test with Echinochloa crus-galli [5] was 100% each time. In addition, the “Weed suppression rate (%) Lindemia pyxidaria” value in the test with Lindernia pyxidaria [2] and with Lindernia pyxidaria [6] was 90% each time. Moreover, the “Weed suppression rate (%) Monochoria vaginalis” value with Monochoria vaginalis [3] and in the test with Monochoria vaginalis [7] was 90% throughout. Moreover, the “Weed suppression rate (%) Scirpus juncoides” value in the test on Scirpus juncoides [4] and with Scirpus juncoides [8] was 90% in each case. Also, the “herbicidal effect, Amaranthus viridis” value in the test with Amaranthus viridis [9] and in the test with Amaranthus viridis [15] was 40% each time. The results for the “herbicidal effect, Chenopodium album” value with Chenopodium album [10] and in the test with Chenopodium album [13] were 100% and 40%, respectively. For the same molecule, the “herbicidal effect, Echinochloa crus-galli” value with Echinochloa crus-galli [11] stood at 100%; with Echinochloa crus-galli [16] it was 90%. For the same molecule, the “herbicidal effect, Crabgrass” value in the test with crabgrass [12] and with crabgrass [14] was 90% each time.
As for `CC(C)N(C(=O)n1cnn(S(=O)(=O)c2ccc(C(C)(C)C)cc2)c1=O)c1ccc(Cl)cn1` [Compound 11-706], the “Weed suppression rate (%) Echinochloa crus-galli” value in the test with Echinochloa crus-galli [1] was found to be 100%; in the test on Echinochloa crus-galli [5] it was 80%. Further, the entries for the “Weed suppression rate (%) Lindemia pyxidaria” value in the test on Lindernia pyxidaria [2] and in the test on Lindernia pyxidaria [6] were 100% and 80%, respectively. For the same molecule, the “Weed suppression rate (%) Monochoria vaginalis” value with Monochoria vaginalis [3] and in the test on Monochoria vaginalis [7] was 80% throughout. Also, the results for the “Weed suppression rate (%) Scirpus juncoides” value with Scirpus juncoides [4] and in the test on Scirpus juncoides [8] were 90% and 70%, respectively. For the same molecule, the “herbicidal effect, Amaranthus viridis” value is 50% in the test with Amaranthus viridis [9] and 70% in the test with Amaranthus viridis [15]. Also, the “herbicidal effect, Chenopodium album” value is reported as 50% in the test on Chenopodium album [10] and 40% in the test with Chenopodium album [13]. In addition, the “herbicidal effect, Echinochloa crus-galli” value with Echinochloa crus-galli [11] turned out to be 80%; in the test with Echinochloa crus-galli [16] it was 0%. The “herbicidal effect, Crabgrass” value came out at 80% in the test on crabgrass [12] and 50% in the test on crabgrass [14].
